Data reported in patent US7183415B2, “Quinoline compound” (Takeda Pharmaceutical Company Limited, priority 2001, dated 2007).

SMILES | melting point
Cc1ccccc1-c1ccc(C(=O)Nc2ccc3cc(CN4CCCC4)cnc3c2C)cc1 [Example 111, 2′-methyl-N-[8-methyl-3-(1-pyrrolidinylmethyl)-7-quinolinyl][1,1′-biphenyl]-4-carboxamide] | 150 to 151 °C
Cc1c(NC(=O)c2ccc(-c3cccc(F)c3)cc2)ccc2cc(CN3CCCC3)cnc12 [Example 112, 3′-fluoro-N-[8-methyl-3-(1-pyrrolidinylmethyl)-7-quinolinyl][1,1′-biphenyl]-4-carboxamide] | 158 to 159 °C
Cc1c(NC(=O)c2ccc(-c3ccc4c(c3)CCO4)cc2)ccc2cc(CN3CCCC3)cnc12 [Example 113, 4-(2,3-dihydro-1-benzofuran-5-yl)-N-[8-methyl-3-(1-pyrrolidinylmethyl)-7-quinolinyl]benzamide] | 176 to 177 °C
Cc1c(NC(=O)c2ccc(-c3ccc4c(c3)CCCO4)cc2)ccc2cc(CN3CCCC3)cnc12 [Example 114, 4-(3,4-dihydro-2H-chromen-6-yl)-N-[8-methyl-3-(1-pyrrolidinylmethyl)-7-quinolinyl]benzamide] | 195 to 197 °C
Cc1c(NC(=O)c2ccc(-c3ccc4c(c3)CCCCO4)cc2)ccc2cc(CN3CCCC3)cnc12 [Example 116, N-[8-methyl-3-(1-pyrrolidinylmethyl)-7-quinolinyl]-4-(2,3,4,5-tetrahydro-1-benzoxepin-7-yl)benzamide] | 162 to 163 °C
Cc1c(NC(=O)c2ccc(C3CCCCC3)cc2)ccc2cc(CN3CCCC3)cnc12 [Example 122, 4-cyclohexyl-N-[8-methyl-3-(1-pyrrolidinylmethyl)-7-quinolinyl]benzamide] | 178 to 179 °C
COc1ccc(COc2ccc(C(=O)Nc3ccc4cc(CN5CCCC5)cnc4c3C)cc2)cc1 [Example 126, 4-[(4-methoxybenzyl)oxy]-N-[8-methyl-3-(1-pyrrolidinylmethyl)-7-quinolinyl]benzamide] | 192 to 193 °C
Cc1ccc(-c2ccc(C(=O)Nc3ccc4cc(CN5CCCC5)cnc4c3C)c(F)c2)cc1 [Example 135, 3-fluoro-4′-methyl-N-[8-methyl-3-(1-pyrrolidinylmethyl)-7-quinolinyl][1,1′-biphenyl]-4-carboxamide] | 180 to 182 °C
Cc1c(NC(=O)c2ccc(-c3ccc(OC(F)(F)F)cc3)cc2F)ccc2cc(CN3CCCC3)cnc12 [Example 136, 3-fluoro-N-[8-methyl-3-(1-pyrrolidinylmethyl)-7-quinolinyl]-4′-(trifluoromethoxy)[1,1′-biphenyl]-4-carboxamide] | 175 to 178 °C
Cc1c(NC(=O)c2ccc(-c3ccc(F)cc3F)cc2F)ccc2cc(CN3CCCC3)cnc12 [Example 139, 2′,3,4′-trifluoro-N-[8-methyl-3-(1-pyrrolidinylmethyl)-7-quinolinyl][1,1′-biphenyl]-4-carboxamide] | 172 to 173 °C
CCc1ccc(-c2ccc(C(=O)Nc3ccc4cc(CN5CCCC5)cnc4c3C)c(F)c2)cc1 [Example 140, 4′-ethyl-3-fluoro-N-[8-methyl-3-(1-pyrrolidinylmethyl)-7-quinolinyl][1,1′-biphenyl]-4-carboxamide] | 178 to 179 °C
Cc1c(NC(=O)c2ccc(-c3cc4ccccc4o3)cc2F)ccc2cc(CN3CCCC3)cnc12 [Example 142, 4-(1-benzofuran-2-yl)-2-fluoro-N-[8-methyl-3-(1-pyrrolidinylmethyl)-7-quinolinyl]benzamide] | 202 to 203 °C
CSc1ccc(-c2ccc(C(=O)Nc3ccc4cc(CN5CCCC5)cnc4c3C)c(F)c2)cc1 [Example 144, 3-fluoro-N-[8-methyl-3-(1-pyrrolidinylmethyl)-7-quinolinyl]-4′-(methylsulfanyl)[1,1′-biphenyl]-4-carboxamide] | 189 to 190 °C
Cc1c(NC(=O)c2ccc(-c3ccc(F)cc3)cc2F)ccc2cc(CN3CCCC3)cnc12 [Example 145, 3,4′-difluoro-N-[8-methyl-3-(1-pyrrolidinylmethyl)-7-quinolinyl][1,1′-biphenyl]-4-carboxamide] | 176 to 178 °C
Cc1c(NC(=O)c2ccc(-c3ccc(Cl)cc3)cc2F)ccc2cc(CN3CCCC3)cnc12 [Example 146, 4′-chloro-3-fluoro-N-[8-methyl-3-(1-pyrrolidinylmethyl)-7-quinolinyl][1,1′-biphenyl]-4-carboxamide] | 181 to 183 °C
COc1ccc(-c2ccc(C(=O)Nc3ccc4cc(CN5CCCC5)cnc4c3C)c(F)c2)cc1 [Example 147, 3-fluoro-4′-methoxy-N-[8-methyl-3-(1-pyrrolidinylmethyl)-7-quinolinyl][1,1′-biphenyl]-4-carboxamide] | 164 to 166 °C
Cc1c(NC(=O)c2ccc(-c3ccccc3F)cc2F)ccc2cc(CN3CCCC3)cnc12 [Example 148, 2′,3-difluoro-N-[8-methyl-3-(1-pyrrolidinylmethyl)-7-quinolinyl][1,1′-biphenyl]-4-carboxamide] | 159 to 160 °C
Cc1c(NC(=O)c2ccc(-c3ccccc3)cc2F)ccc2cc(CN3CCCC3)cnc12 [Example 149, 3-fluoro-N-[8-methyl-3-(1-pyrrolidinylmethyl)-7-quinolinyl][1,1′-biphenyl]-4-carboxamide] | 166 to 168 °C

SMILES | melting point
Cc1c(NC(=O)c2ccc(-c3ccccc3)c(F)c2)ccc2cc(CN3CCCC3)cnc12 [Example 151, 2-fluoro-N-[8-methyl-3-(1-pyrrolidinylmethyl)-7-quinolinyl][1,1′-biphenyl]-4-carboxamide] | 156 to 158 °C
COc1ccc(-c2ccc(C(=O)Nc3ccc4cc(CN5CCCC5)cnc4c3C)cc2F)cc1 [Example 152, 2-fluoro-4′-methoxy-N-[8-methyl-3-(1-pyrrolidinylmethyl)-7-quinolinyl][1,1′-biphenyl]-4-carboxamide] | 174 to 176 °C
Cc1c(NC(=O)c2ccc(-c3ccc(F)cc3)c(F)c2)ccc2cc(CN3CCCC3)cnc12 [Example 153, 2,4′-difluoro-N-[8-methyl-3-(1-pyrrolidinylmethyl)-7-quinolinyl][1,1′-biphenyl]-4-carboxamide] | 176 to 178 °C
Cc1c(NC(=O)c2ccc(-c3ccc(Cl)cc3)c(F)c2)ccc2cc(CN3CCCC3)cnc12 [Example 154, 4′-chloro-2-fluoro-N-[8-methyl-3-(1-pyrrolidinylmethyl)-7-quinolinyl][1,1′-biphenyl]-4-carboxamide] | 190 to 192 °C
Cc1ccc(-c2ccc(C(=O)Nc3ccc4cc(CN5CCCC5)cnc4c3C)cc2F)cc1 [Example 155, 2-fluoro-4′-methyl-N-[8-methyl-3-(1-pyrrolidinylmethyl)-7-quinolinyl][1,1′-biphenyl]-4-carboxamide] | 193 to 194 °C
Cc1c(NC(=O)c2ccc(-c3ccccc3F)c(F)c2)ccc2cc(CN3CCCC3)cnc12 [Example 156, 2,2′-difluoro-N-[8-methyl-3-(1-pyrrolidinylmethyl)-7-quinolinyl][1,1′-biphenyl]-4-carboxamide] | 139 to 140 °C
Cc1cc(-c2ccc(F)cc2)ccc1C(=O)Nc1ccc2cc(CN3CCCC3)cnc2c1C [Example 158, 4′-fluoro-3-methyl-N-[8-methyl-3-(1-pyrrolidinylmethyl)-7-quinolinyl][1,1′-biphenyl]-4-carboxamide] | 200 to 203 °C
Cc1cc(C(=O)Nc2ccc3cc(CN4CCCC4)cnc3c2C)ccc1-c1ccc(F)cc1 [Example 160, 4′-fluoro-2-methyl-N-[8-methyl-3-(1-pyrrolidinylmethyl)-7-quinolinyl][1,1′-biphenyl]-4-carboxamide] | 200 to 202 °C
Cc1c(NC(=O)c2ccc(OCc3ccccc3)cc2)ccc2cc(CN3CCCCC3)cnc12 [Example 161, 4-(benzyloxy)-N-[8-methyl-3-(1-piperidinylmethyl)-7-quinolinyl]benzamide] | 186 to 187 °C
Cc1c(NC(=O)c2ccc(OCc3ccc(F)cc3)cc2)ccc2cc(CN3CCCCC3)cnc12 [Example 162, 4-[(4-fluorobenzyl)oxy]-N-[8-methyl-3-(1-piperidinylmethyl)-7-quinolinyl]benzamide] | 159 to 160 °C
COc1ccc(-c2ccc(C(=O)Nc3ccc4cc(CN5CCCCC5)cnc4c3C)cc2)cc1 [Example 165] | 190 to 192 °C
Cc1c(NC(=O)c2ccc(-c3ccc(F)cc3)cc2)ccc2cc(CN3CCCCC3)cnc12 [Example 166, 4′-fluoro-N-[8-methyl-3-(1-piperidinylmethyl)-7-quinolinyl][1,1′-biphenyl]-4-carboxamide] | 188 to 190 °C
Cc1c(NC(=O)c2ccc(-c3ccc(Cl)s3)cc2)ccc2cc(CN3CCCCC3)cnc12 [Example 167, 4-(5-chloro-2-thienyl)-N-[8-methyl-3-(1-piperidinylmethyl)-7-quinolinyl]benzamide] | 212 to 213 °C
Cc1c(NC(=O)c2ccc(-c3ccc(F)cc3)cc2F)ccc2cc(CN3CCCCC3)cnc12 [Example 170, 3,4′-difluoro-N-[8-methyl-3-(1-piperidinylmethyl)-7-quinolinyl][1,1′-biphenyl]-4-carboxamide] | 186 to 187 °C
COc1ccc(-c2ccc(C(=O)Nc3ccc4cc(CN5CCCCC5)cnc4c3C)c(F)c2)cc1 [Example 171, 3-fluoro-4′-methoxy-N-[8-methyl-3-(1-piperidinylmethyl)-7-quinolinyl][1,1′-biphenyl]-4-carboxamide] | 191 to 192 °C
COc1ccc(-c2ccc(C(=O)Nc3ccc4cc(CN5CCCCCC5)cnc4c3C)cc2)cc1 [Example 179, N-[3-(1-azepanylmethyl)-8-methyl-7-quinolinyl]-4′-methoxy[1,1′-biphenyl]-4-carboxamide] | 165 to 167 °C
Cc1c(NC(=O)c2ccc(-c3ccc(F)cc3)cc2)ccc2cc(CN3CCCCCC3)cnc12 [Example 180, N-[3-(1-azepanylmethyl)-8-methyl-7-quinolinyl]-4′-fluoro[1,1′-biphenyl]-4-carboxamide] | 166 to 168 °C
COc1ccc(-c2ccc(C(=O)Nc3ccc4cc(CN5CCCCCC5)cnc4c3C)c(F)c2)cc1 [Example 185, N-[3-(1-azepanylmethyl)-8-methyl-7-quinolinyl]-3-fluoro-4′-methoxy[1,1′-biphenyl]-4-carboxamide] | 171 to 172 °C
